Results reported in patent US4462992A, “Nitroimidazole radiosensitizers for hypoxic tumor cells and compositions thereof” (priority 1982, dated 1984).
Like-named read-outs stand apart in the source and are kept apart here.

How the values were obtained:
[1] = tested on: Chinese hamster cells line V-79; assay: Radiosensitization (enhancement ratio, cobalt-60 irradiation of hypoxic cells); assay type: cell-based
Method: (§1) Asynchronous monolayers of cultures of Chinese hamster cells line V-79 were employed in all experiments. The monolayers were derived from exponentially growing cultures. Methods of culturing and handling have been reported earlier by Cooke et al, Rad. Res. 65, 152 (1976). The plated cultures were rendered hypoxic in sealed dural containers capable of holding seven petri dishes, by purging with nitrogen (oxygen-free grade) for one hour. Irradiation was carried out by using a cobalt-60 source at a dose rate of approximately 240 rad/min according to the procedure described by Agrawal et al Rad. Res. 78:532 (1979). A dose of 1400 rad was given to hypoxic cells in glass petri dishes in the presence of a given drug concentration (2000 cells/dish). Cell survival was estimated from unirradiated toxic hypoxic cells exposed to the same drug concentration. Complete survival curves were obtained for each compound at the radiation doses of 400 to 3000 rad. The Do value was calculated for each compound and the ratio of the Do value for the hypoxic control cells to the Do value of the hypoxic drug treated cells provided the sensitized enhancement ratio of the corresponding agent.
(§2) Cultures were incubated for 6 days at 37° C. in an atmosphere of 5% CO2. The resulting colonies were fixed in absolute ethanol and stained with methylene blue and counted.

in vivo = details: mouse, ip
Method: Neurotoxicity in mice was determined using mice of strain CDF1. This was carried out by (1) determining the LD50 of each compound in mice and (2) observing the animals for acute neurotoxic symptoms such as convulsions. The drugs were either solubilized or suspended in normal saline and administered intraperitoneally to groups of ten mice. […]

[2] = tested on: hypoxic cells (Chinese hamster cells line V-79); assay: Differential toxicity to hypoxic cells at 4 hours; assay type: cell-based
Method: as §1
(§3) To determine toxicity in vitro, glass petri dishes containing approximately 200 Chinese hamster cells/dish were exposed to a range of concentrations of each drug for 2 hours and/or 4 hours at 37° C. Drug concentrations between 10 μM and 0.5 mM were employed initially.

[3] = In vitro cytotoxicity in hypoxic cells (% survival); assay type: cell-based, Chinese hamster; details: hamster, v-79 cells; for viability at 2 h, 100 µM / viability at 4 h, 100 µM: 0.1 mM; for viability at 2 h, 500 µM / viability at 4 h, 500 µM: 0.5 mM
Method: as §1, §2, §3

[4] = In vitro cytotoxicity in oxic cells (% survival); assay type: cell-based, Chinese hamster; details: hamster, v-79 cells, oxic; for viability at 2 h, 100 µM / viability at 4 h, 100 µM: 0.1 mM
Method: as §1, §2, §3

[5] = tested on: Chinese hamster cells line V-79 (oxic); assay: In vitro cytotoxicity in oxic cells (% survival); assay type: cell-based; details: 4 hours, 240 min
Method: as §1, §2, §3

hypoxic tumor cells = details: cited from earlier work
central nervous system = details: cited from earlier work
[6] = 2 hours, read-out: In vitro cytoxicity in hypoxic cells (% survival at 2 hours)
[7] = 4 hours, read-out: In vitro cytoxicity in hypoxic cells (% survival at 4 hours)
[8] = 2 hours, read-out: In vitro cytoxicity in oxic cells (% survival at 2 hours)
[9] = 2 hours, 0.5 mM, read-out: In vitro cytoxicity in oxic cells (% survival at 2 hours)
[10] = 4 hours, read-out: In vitro cytoxicity in oxic cells (% survival at 4 hours)

Compound | Radiosensitization (enhancement ratio in Chinese hamster cells) ([1]; 0.5 mM) | Differential toxicity to hypoxic cells at 4 hours [2] | viability at 2 h, 100 µM [3, 6] [%] | viability at 2 h, 500 µM [3, 6] [%] | viability at 4 h, 100 µM [3, 7] [%] | viability at 4 h, 500 µM [3, 7] [%] | viability at 2 h, 100 µM [4, 8] [%] | viability at 2 h, 500 µM [4, 9] [%] | viability at 4 h, 100 µM [4, 10] [%] | effectiveness in vivo (hypoxic tumor cells) | other results
O=[N+]([O-])c1nccn1[C@@H]1C=C[C@H](O)[C@@H](CO)O1 [A, 1(2',3didehydro-2',3dideoxy-D-erythro-hexopyranonyl)-2-nitroimidazole] | 2.2 | Yes | 97.3 | 75.9 | 56.7 | 15.8 | 99 | 90 | 99 | – | Radiosensitization (enhancement ratio in Chinese hamster cells) ([1]; 0.25 mM): 2.0; LD50 at 24 h (in vivo): 3300 mg/kg; viability at 2 h, 250 µM ([3]; 2 hours, 0.25 mM, read-out: In vitro cytoxicity in hypoxic cells (% survival at 2 hours)): 92%; viability at 2 h, 1000 µM ([3]; 2 hours, 1.0 mM, read-out: In vitro cytoxicity in hypoxic cells (% survival at 2 hours)): 59.6%; viability at 4 h, 250 µM ([3]; 4 hours, 0.25 mM, read-out: In vitro cytoxicity in hypoxic cells (% survival at 4 hours)): 26.7%; viability at 4 h, 1000 µM ([3]; 4 hours, 1.0 mM, read-out: In vitro cytoxicity in hypoxic cells (% survival at 4 hours)): 0%; viability at 2 h, 250 µM ([4]; 2 hours, 0.25 mM, read-out: In vitro cytoxicity in oxic cells (% survival at 2 hours)): 104%; viability at 2 h, 1000 µM ([4]; 2 hours, 1.0 mM, read-out: In vitro cytoxicity in oxic cells (% survival at 2 hours)): 82.4%; viability at 4 h, 250 µM ([4]; 4 hours, 0.25 mM, read-out: In vitro cytoxicity in oxic cells (% survival at 4 hours)): 104%
CC(=O)OC[C@H]1O[C@@H](n2ccnc2[N+](=O)[O-])C=C[C@@H]1OC(C)=O [C, 1(4',6di-O--acetyl2',3didehydro-2',3dideoxy-D-erythro-hexopyranosyl)-2-ni roimidazole] | 1.6 | Yes | 104 | 92.6 | 86.6 | 41.1 | 95 | 97 | 101 | – | In vitro cytoxicity in oxic cells (% survival at 4 hours) ([5]; 0.1 mM, 100 µM): 94%; In vitro cytoxicity in oxic cells (% survival at 4 hours) ([5]; 0.5 mM, 500 µM): 88%; viability at 2 h, 10 µM ([4]; 2 hours, 0.01 mM, read-out: In vitro cytoxicity in oxic cells (% survival at 2 hours)): 101%; viability at 2 h, 50 µM ([4]; 2 hours, 0.05 mM, read-out: In vitro cytoxicity in oxic cells (% survival at 2 hours)): 100%; viability at 4 h, 500 µM ([4]; 4 hours, 0.5 mM, read-out: In vitro cytoxicity in oxic cells (% survival at 4 hours)): 103%
COCC(O)Cn1ccnc1[N+](=O)[O-] (stereo not drawn) [N, Misonidazole] | – | Yes | – | – | – | – | – | – | – | effective in vivo | side effects in mice (central nervous system; administered orally): peripheral neuropathy and convulsions in mice; central nervous system toxicity (central nervous system; use in humans): central nervous system toxicity is a limiting factor for their use in humans
Cc1ncc([N+](=O)[O-])n1CCO [O, Metronidazole] | – | Yes | – | – | – | – | – | – | – | effective in vivo | Radiosensitization (enhancement ratio in Chinese hamster cells) ([1]; 1.0 mM): 1.5; radiosensitization activity (hypoxic tumor cells; in vivo and in vitro): active both in vivo and in vitro; side effects in mice (central nervous system; in vivo, po): peripheral neuropathy and convulsions in mice; central nervous system toxicity (central nervous system; in vivo): central nervous system toxicity is a limiting factor for their use in humans
